In patent US12533353B2, “Methods of treatment of cancer comprising CDC7 inhibitors” (CARNA BIOSCIENCES, INC., priority 2018, dated 2026):
Like-named read-outs stand apart in the source and are kept apart here.

Experiments:
[1] = Plasma concentrations by LC-MS/MS after repeat oral dosing, non-tumor bearing nude rats; assay type: in vivo, rat; settings: oral 50, 100 or 150 mg/kg, after last dose
Experimental: Non-tumor bearing female nude rats were treated orally with SRA141 (n=3 per route) at 50 mg/kg (QD×12 days) or 100 or 150 mg/kg (5 days on/2 days off/5 days on). The vehicle was 0.5% CMC-Na/1% Lutrol in water. SRA141 plasma concentrations were determined by LC-MS/MS following last dose.

COLO-205 cells = test: Cell cycle sensitivity, double thymidine block, flow cytometry; assay type: cell-based, human; settings: 1 μM added at S or M phase
Experimental: The sensitivity to SRA141 treatment at the various phases of the cell cycle was determined in Colo-205 cells synchronized with double thymidine block. Upon block release, SRA141 (1 μM) was added as the cells reached either S or M phase.

[2] = 4-cycle repeat oral dose toxicology study (5 days on/2 days off); assay type: in vivo, dog; settings: for Cmax / AUC(0-t): plasma, po; for AUC(0-t): read-out: AUC24 h
Experimental: Toxicology studies evaluating SRA141 were conducted in rat and dog following single and repeat oral dosing for up to 4 cycles (5 days on/2 days off per cycle). In addition, the potential genetic toxicity of SRA141 was evaluated in vitro.

[3] = system: bacterial reverse mutation; test: In vitro bacterial reverse mutation assay
Text: (§1) SRA141 was negative for both mutagenicity and clastogenicity in in vitro bacterial reverse mutation and human lymphocyte chromosomal aberration assays.

[4] = system: pMCM2-S40, pMCM2-S53, pMCM2-S41, pHH3; test: Immunohistochemistry in rat MV-4-11 xenograft tumor and skin; assay type: in vivo
Experimental: Rats bearing subcutaneous biphenotypic B myelomonocytic leukemia MV-4-11 tumors were treated with SRA141 at 75 mg/kg or vehicle, BID, or with SRA141 at 100 mg/kg, QD, for 5 days. Tumors were collected from the animals 12 hours after administration of the last dose. Formalin fixed paraffin-embedded tumor and/or skin were assessed by immunohistochemistry for total MCM2, phosphorylated MCM2 at Serine 40 (pMCM2-S40) and phosphorylated MCM2 at Serine 53 (pMCM2-S53), phosphorylated MCM2 at Serine 41 (pMCM2-S41), and phosphorylated-Histone H2A.X at Serine 139 effects at steady-state.
Tumor cells in xenograft tumors (but not stroma or surrounding rat tissue) were scored. Scoring is performed semi-quantitatively with the main components to scoring tumor cells for total MCM2, pMCM2-S53, pMCM2-S40, and gH2AX reactivity as percentages at differential intensities and H-Scores. Percentage and intensity measures are estimated by a scientist in the same relative region of tumor (one 40×-field from the bottom edge) within each xenograft sample.
The H-Score approach used to evaluate the xenograft tissues requires recording the percentage of tumor cells with nuclear staining at a corresponding differential intensity on a four-point semi-quantitative scale (0, 1+, 2+, 3+). […]
The H-Score is calculated by summing the percentage of cells with intensity of expression (brown staining) multiplied by their corresponding differential intensity on a four-point semi-quantitative scale (0, 1+, 2+, 3+). […]
Epithelial cells of the epidermis in rat skin samples were scored […] by two scientists. Scoring was performed quantitatively with the main component to scoring epidermal cells for total MCM2, pMCM2-S53, pMCM2-S40, and gH2AX reactivity as counts of positive cells. […] For pMCM2-S53 and pMCM2-S40, the number of positive cells in a 10× field at the four representative regions was counted. For gH2Ax, the number of positive cells in a 20× field at the four representative regions was counted. Cells were counted if staining was readily observed at 10× or 20×, regardless of intensity. Cells were only counted within the flat epidermis and not in regions of invagination in order to consistently capture the same total area.
The number of positive skin cells counted across the regions analyzed for each skin sample were averaged for each biomarker. […]
Skin cell counts were performed by recording the number of positive cells (at any intensity) counted by two independent scientists in multiple regions of skin (two regions for total MCM2, four regions for pMCM2 and gH2AX) that are in the same approximate location for each sample. The number of positive cells recorded at each skin region for each biomarker were averaged for each sample. […]

[5] = In vitro metabolism in hepatocytes; assay type: in vitro ADME, human
Text: Eleven metabolites were identified across species, of which 6 occurred in the human matrix. One human-specific metabolite was identified, but only at trace levels. The mouse, rat and dog hepatocyte metabolite profiles contained all the other human metabolites.

[6] = Absolute oral bioavailability; settings: monkey, in vivo, free base suspension, read-out: absolute oral bioavailability (% F)
CYP 3A4/5 = test: In vitro time and metabolism-dependent CYP inhibition; assay type: in vitro ADME; settings: human
[7] = In vitro plasma protein binding; assay type: in vitro ADME; settings: rat
human lymphocyte = test: Human lymphocyte chromosomal aberration assay; assay type: cell-based; settings: in vitro
Text: as §1

[8] = In vitro plasma protein binding; assay type: in vitro ADME; settings: range given for mouse and dog together
[9] = 2 mg/kg/day, at NOAEL, dog, female
[10] = 2 mg/kg/day, at NOAEL, dog, male
[11] = 10 mg/kg/day, at MTD/HNSTD, dog, female
[12] = 10 mg/kg/day, at MTD/HNSTD, dog, male

Question: Which results are given for `CCOC(=O)C1=C(NN2CCN(CC(F)(F)F)CC2)O/C(=C\c2c[nH]c3ncccc23)C1=O` [SRA141]?
Answer: systemic exposure versus dose [1]: systemic exposure increased with an increase in the oral dose; sub-G1 (apoptotic) population by cell cycle phase of treatment (COLO-205 cells): accumulated as the cells progressed through M phase provided they were treated with SRA141 during the preceding S phase; NOAEL Dose ([2]; dog): 40 mg/m2/day; MTD/HNSTD Dose ([2]; dog (HNSTD)): 200 mg/m2/day; NOAEL at 4 cycles (5 days on/2 days off) ([2]; dog, in vivo, oral): 2 mg/kg/day; MTD at 4 cycles (5 days on/2 days off) ([2]; in vivo, oral, dog (HNSTD)): 10 mg/kg/day; Cmax [2, 9]: 129 ng/mL; AUC(0-t) [2, 9]: 804 ng·h/mL; Cmax [2, 10]: 98 ng/mL; AUC(0-t) [2, 10]: 859 ng·h/mL; Cmax [2, 11]: 576 ng/mL; AUC(0-t) [2, 11]: 6840 ng·h/mL; Cmax [2, 12]: 497 ng/mL; AUC(0-t) [2, 12]: 5660 ng·h/mL; potential target organs for SRA141-related toxicity ([2]; rat and dog repeat-dose studies together, dog most sensitive species): gallbladder/biliary system, lymphoid tissues (spleen, thymus, lymph node and GALT), bone marrow, liver, kidney, male and female reproductive tract, peripheral leukocytes, and salivary gland; mutagenicity [3]: negative; pMCM2 at S40 and S53 in tumor ([4]; 75 mg/kg BID or 100 mg/kg QD, 5 days, 12 hours after last dose): substantial decreases; mitotic (pHH3) and apoptotic cells (H&E) in tumors compared to vehicle ([4]; after 5 days of dosing): fewer mitotic cells and an increased presence of apoptotic cells; pMCM2-S41 ([4]; after SRA141 treatment): no effects; pMCM2-S40 in tumor and skin versus dose ([4]; various dosages): dose-dependent decrease; metabolic stability ([5]; human hepatocytes): favorable metabolic stability; number of metabolites in the human matrix ([5]; of eleven across species): 6; bioavailability [6]: 1 to 33%; IC50 (CYP 3A4/5): 6.2 to 6.7 µM; fraction unbound [7]: < 0.1; clastogenicity (human lymphocyte): negative; fraction unbound [8]: 0.23 to 0.42
